From PMC11357484, “Investigating Changes in Pharmacokinetics of Steroidal Alkaloids from a Hydroethanolic Fritillariae thunbergii Bulbus Extract in 2,4-Dinitrobenzene Sulfonic Acid-Induced Colitis Rats” (Pharmaceuticals, 2024)

Key:
RAW 264.7 cells = assay: Cell viability (EZ-Cytox) in RAW 264.7 cells; assay type: cell-based, mouse; conditions: 24 h incubation
Protocol: (§1) The RAW 264.7, a mouse macrophage cell line (American Type Culture Collection, Manassas, VA, USA), was grown in DMEM medium supplemented with 10% fetal bovine serum and 1% penicillin–streptomycin at 37 °C with 5% CO2.
To determine cell viability against the four steroidal alkaloids, peimine, peimisine, peiminine, and sipeimine, RAW 264.7 cells were seeded at a density of 5 × 10^4 cells/well in 96-well plates and incubated overnight. Cells were then incubated with various concentrations of the four compounds (0, 0.78, 1.56, 3.13, 6.25, 12.5, 25, 50, and 100 μg/mL) for 24 h, respectively. Subsequently, 10 μL of EZ-Cytox (DoGenBio Co., Seoul, Republic of Korea) was added and incubated for 1 h. Absorbance was measured at 450 nm using an enzyme-linked immunosorbent assay reader (Bio-Rad Laboratories, Hercules, CA, USA). Cell viability was calculated by comparing the values measured with those of untreated cells.

[1] = Pharmacokinetics of steroidal alkaloids after single oral FTB dose in normal and DNBS-induced colitis rats; assay type: in vivo, Sprague–Dawley rats; conditions: for AUC_%Extrap_obs / AUClast / AUMClast / Cmax / MRT last / Tmax / half-life: oral FTB 1 g/kg single dose, plasma, mean ± SD, n = 5; for Cmax / MRT last / Tmax / half-life: male, Sprague-Dawley, rat, po, 1 g/kg; for half-life under colitis compared with normal conditions / systemic exposure under colitis condition compared with normal state: oral FTB 1 g/kg, DNBS vs normal rats
Protocol: Ten-week-old male Sprague–Dawley rats were obtained from Samtaco (Osan, Republic of Korea), quarantined, and acclimatized for one week before the experiments. All animal experiments were approved by the Animal Care and Use Committee of Chungnam National University (202304A-CNU-067). The rats were fasted for 14–16 h the day before administration of DNBS (Sigma-Aldrich). After the rats were anesthetized with isoflurane, the colitis group received a single dose of 30 mg/250 μL in 50% ethanol through a medical grade polyurethane catheter, injected rectally into the descending colon 8 cm from the anal sphincter. DNBS was administered slowly over 1 min, and the rats were kept supine in the Trendelenburg position for 3 min after injection to prevent leakage. The normal group received only 50% ethanol, following the same procedure as described above. The pharmacokinetic study was performed four days after DNBS administration, and both the normal and DNBS groups were orally administered a single dose of 1 g/kg FTB. Blood samples were obtained from the tail vein at 0, 0.5, 0.75, 1, 2, 4, 6, 8, 10, 12, 24, and 30 h, and the rats were sacrificed after the last blood collection. The plasma samples obtained were centrifuged at 16,000× g for 15 min and stored at −80 °C until analysis.
Plasma concentrations were measured using UPLC-MS/MS (Agilent Technologies Inc.) in the same manner as described above. 100 μL of plasma was vortexed with 20 μL ammonia water and 800 μL ethyl acetate for 15 min and centrifuged at 16,000× g for 15 min. After evaporating 800 μL of the supernatant under nitrogen at 40 °C, 50 μL of 50% methanol was added. The mixture was then vortexed and centrifuged, and 5 μL of the final extract was used for analysis.
For the plasma concentration analysis, the limit of detection and limit of quantification (LOQ) were defined based on the concentration of the analyte, which generated signal-to-noise (S/N) ratios of 3 and 10, respectively, following the “Guideline on Bioanalytical Method Validation” for the Ministry of Food and Drug Safety in Korea (MFDS 2023). Among the active ingredients of FTB, peimine, peimisine, peiminine, and sipeimine were detected in concentrations above the LOQ —the multiple reaction monitoring conditions of each of them are summarized in Supplementary Table S2. The calibration curves were linear over the concentration range of 0 to 2000 ng/mL, with a correlation coefficient of R^2 > 0.99. Precision and accuracy were evaluated by calculating the intra- and inter-day recoveries of quality control samples at three concentrations: 10, 50, and 100 ng/mL. The intra- and inter-day recoveries were within the range of 84.6 to 115.6%, and the coefficient of variation was less than 10%. Detailed validation results for the analysis method of peimine, peimisine, peiminine, and sipeimine are summarized in Supplementary Table S3.
The pharmacokinetic parameters were calculated based on a non-compartmental model using Monolix 2023R1 (Lixoft SAS, Simulations Plus Inc., Lancaster, CA, USA). The dosage of each component was calculated based on the content of the component within the FTB, and applied in the pharmacokinetics analysis. From the data analyzed, the Cmax of FTB and the time to Cmax (Tmax) were determined. Elimination half-life was obtained by linear regression of log-tranformed concentration data in the late phase. The AUC was estimated using the linear log-trapezoidal and linear up-log-down rules for the time of final concentration in each group.

[2] = cited from earlier work
[3] = system: LPS-stimulated RAW 264.7 cells; assay: Pro-inflammatory cytokine mRNA expression (qPCR) in LPS-stimulated RAW 264.7 cells; assay type: cell-based, mouse; conditions: 25 μg/mL; 24 h pretreatment then LPS 4 h; vs LPS alone
Protocol: as §1
To evaluate the anti-inflammatory effects of the active ingredients in FTB, the cells were seeded in 12-well plates at 3 × 10^5 cells/mL and treated with 25 μg/mL of the four steroidal alkaloids, peimine, peimisine, peiminine and sipeimine, respectively, a concentration determined to be non-toxic according to the cell viability assay. LPS (Sigma-Aldrich, St. Louis, MO, USA) from Escherichia coli O111:B4 was used as a control at a concentration of 10 μg/mL. Cells were pretreated with the compounds for 24 h, followed by treatment with LPS for 4 h. After cells were harvested, total RNA was extracted using a total RNA extraction kit (Samjung Bioscience, Daejeon, Republic of Korea), and the extracted RNA was reverse transcribed into cDNA. The synthesized cDNA was subjected to quantitative polymerase chain reaction to measure the mRNA expression levels of cytokines using the following forward and reverse primers: IL-1β, forward, 5′-[…]-3′; reverse, 5′-[…]-3′; IL-6, forward, 5′-[…]-3′; reverse, 5′-[…]-3′; TNF-α, forward, 5′-[…]-3′; reverse, 5′-[…]-3′; GAPDH, forward, 5′-[…]-3′; reverse, 5′-[…]-3′.

SMILES | concentrations at which no toxicity was shown (cell viability) (RAW 264.7 cells) [µg/mL] | AUC_%Extrap_obs ([1]; DNBS-treated (colitis) rats) [%] | AUClast ([1]; DNBS-treated (colitis) rats) | AUMClast ([1]; DNBS-treated (colitis) rats) | Cmax ([1]; DNBS-treated (colitis) rats) [µg/mL] | MRT last ([1]; DNBS-treated (colitis) rats) [h] | Tmax ([1]; DNBS-treated (colitis) rats) [h] | half-life ([1]; DNBS-treated (colitis) rats) [h] | Cmax ([1]; normal rats) [µg/mL] | MRT last ([1]; normal rats) [h] | Tmax ([1]; normal rats) [h] | half-life ([1]; normal rats) [h] | AUC_%Extrap_obs ([1]; normal rats) [%] | AUClast ([1]; normal rats) [h∗ng/mL] | AUMClast ([1]; normal rats) | half-life under colitis compared with normal conditions [1] | systemic exposure under colitis condition compared with normal state [1] | partition coefficient (logP) [2] | pKa [2] | also measured
C[C@H]1CC[C@@H]2N(C1)C[C@H]1[C@@H]3C[C@H]4[C@@H](C[C@H](O)[C@H]5C[C@@H](O)CC[C@@]54C)[C@@H]3CC[C@@H]1[C@]2(C)O [peimine] | 0 to 25 | 6.6 ± 6.6 | 1076.9 ± 444.1 h∗ng/mL | 2819.7 ± 1408.9 h∗h∗ng/mL | 0.351 ± 0.149 | 2.7 ± 0.6 | 1 ± 0.7 | 1.9 ± 0.7 | 0.356 ± 0.253 | 3.7 ± 0.8 | 0.7 ± 0.2 | 4 ± 2.5 | 6.7 ± 5.5 | 1311.8 ± 762.6 | 4511.4 ± 2253.8 h∗h∗ng/mL | shorter half-life | no observable difference | 4.1 |  | 
C[C@H]1CC[C@@H]2N(C1)C[C@H]1[C@@H]3C[C@H]4[C@@H](CC(=O)[C@H]5C[C@@H](O)CC[C@@]54C)[C@@H]3CC[C@@H]1[C@]2(C)O [peiminine] | 0 to 25 | 3.3 ± 2.9 | 888.8 ± 286.0 h∗ng/mL | 3149.7 ± 1242.0 h∗h∗ng/mL | 0.209 ± 0.0511 | 3.6 ± 0.6 | 1.3 ± 0.8 | 1.8 ± 0.9 | 0.228 ± 0.11 | 4.7 ± 1.1 | 1 ± 0.2 | 4.5 ± 2 | 14.5 ± 15.7 | 1172.4 ± 392.3 | 5302.0 ± 1844.3 h∗h∗ng/mL | shorter half-life | no observable difference | 3.9 | approximately 14 | IL-6 mRNA expression lowered [3]: approximately 5 fold
CC1=C2C[C@H]3[C@@H](CC(=O)C4C[C@@H](O)CC[C@@]43C)[C@@H]2CC[C@]12OC1C[C@H](C)CN[C@H]1[C@H]2C (some centres unmarked) [peimisine] | 0 to 25 | 8.9 ± 11.6 | 16,895.4 ± 5782.1 h∗ng/mL | 126,755.7 ± 54,141.2 h∗h∗ng/mL | 2.33 ± 0.363 | 7.3 ± 1.3 | 1.5 ± 0.8 | 7.7 ± 4.9 | 0.655 ± 0.672 | 5 ± 2 | 0.9 ± 0.2 | 3.9 ± 1.7 | 5.3 ± 4.0 | 3959.3 ± 4738.6 | 23,522.8 ± 33,482.7 h∗h∗ng/mL |  | approximately five times higher | 2.7 | approximately 14 | IL-1β mRNA expression lowered [3]: about 6 fold; TNF-α mRNA expression lowered [3]: ~3 fold
C[C@H]1CC[C@@H]2N(C1)C[C@H]1[C@@H]3C[C@H]4[C@@H](CC(=O)[C@H]5C[C@@H](O)CC[C@@]54C)[C@@H]3CC[C@H]1[C@]2(C)O [sipeimine] | 0 to 25 | 11.0 ± 8.3 | 764.0 ± 285.5 h∗ng/mL | 3588.3 ± 1486.0 h∗h∗ng/mL | 0.162 ± 0.097 | 4.7 ± 0.6 | 2.4 ± 1.2 | 3.2 ± 1.6 | 0.0647 ± 0.0134 | 5.4 ± 1.7 | 1.3 ± 0.5 | 6.9 ± 5.6 | 10.4 ± 8.6 | 463.5 ± 232.8 | 2675.8 ± 2026.3 h∗h∗ng/mL | shorter half-life | no observable difference | 4.4 | approximately 14 | 
